{
  "source": "patent US9464058B2",
  "about": "(Hoffmann-La Roche Inc., priority 2012, dated 2016)",
  "key": {"[1]": {"tested_on": "rat model of chronic kidney disease", "conditions": "rat CKD model, cited from earlier work; for renal effects (albuminuria, azotemia, renovascular hypertrophy, glomerular injury, PAI-1 and osteopontin mRNA, tubulointerstitial fibrosis): angiotensin II and high salt"}, "[2]": {"tested_on": "rats with experimental heart failure", "conditions": "cited from earlier work"}, "[3]": {"tested_on": "patients with primary aldosteronism", "conditions": "oral; cited from earlier work"}, "[4]": {"target": "T1, human CYP11B2 (Homo sapiens, UniProt P19099)", "T1 construct": "expressed in transfected cells", "T1 sequence (P19099 25-503)": "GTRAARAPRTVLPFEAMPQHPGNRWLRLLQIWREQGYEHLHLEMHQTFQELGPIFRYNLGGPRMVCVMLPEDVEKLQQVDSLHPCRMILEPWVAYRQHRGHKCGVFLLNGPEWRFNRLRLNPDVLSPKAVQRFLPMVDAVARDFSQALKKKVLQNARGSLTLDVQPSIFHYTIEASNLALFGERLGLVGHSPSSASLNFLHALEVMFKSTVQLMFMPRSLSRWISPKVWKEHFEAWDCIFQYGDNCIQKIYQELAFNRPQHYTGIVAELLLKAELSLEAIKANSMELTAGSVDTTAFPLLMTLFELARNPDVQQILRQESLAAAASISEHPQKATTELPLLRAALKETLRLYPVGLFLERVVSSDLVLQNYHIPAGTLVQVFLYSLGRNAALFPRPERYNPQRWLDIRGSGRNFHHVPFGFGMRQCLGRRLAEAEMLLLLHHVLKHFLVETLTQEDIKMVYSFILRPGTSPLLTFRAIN", "test": "G-402 cellular enzyme assay, human CYP11B2 (aldosterone release, HTRF)", "assay_type": "cell-based", "conditions": "G-402 cells expressing human CYP11B2; 1 μM Deoxycorticosterone; 16 h", "how_it_was_run": "(§1)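 G-402 cells stably expressing human CYP11B2 or CYP11B1, incubated 16 h with compound in DMEM/F12 with 2.5% charcoal-treated FCS plus 1 μM deoxycorticosterone (CYP11B2) or 1 μM deoxycortisol (CYP11B1). Aldosterone or cortisol in supernatant measured by HTRF; EC50 from 4-parameter MMF fit.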"}, "[5]": {"target": "T2, human CYP11B1 (Homo sapiens, UniProt P15538)", "T2 construct": "expressed in transfected cells", "T2 sequence (P15538 25-503)": "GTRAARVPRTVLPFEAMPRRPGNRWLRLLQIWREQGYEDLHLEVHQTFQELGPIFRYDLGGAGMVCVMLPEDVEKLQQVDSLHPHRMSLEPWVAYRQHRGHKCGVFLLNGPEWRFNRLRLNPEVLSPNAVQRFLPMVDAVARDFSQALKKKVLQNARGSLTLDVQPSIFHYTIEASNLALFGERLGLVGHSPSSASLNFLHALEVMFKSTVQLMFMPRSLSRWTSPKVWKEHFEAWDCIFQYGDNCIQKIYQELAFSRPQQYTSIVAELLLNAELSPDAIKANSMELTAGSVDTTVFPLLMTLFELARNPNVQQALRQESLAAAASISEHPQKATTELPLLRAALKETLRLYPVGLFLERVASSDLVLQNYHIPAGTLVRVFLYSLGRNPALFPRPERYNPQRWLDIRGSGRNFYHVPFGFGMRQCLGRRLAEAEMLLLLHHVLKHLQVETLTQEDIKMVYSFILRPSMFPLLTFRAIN", "test": "G-402 cellular enzyme assay, human CYP11B1 (cortisol release, HTRF)", "assay_type": "cell-based", "conditions": "G-402 cells expressing human CYP11B1; 1 μM Deoxycortisol; 16 h", "how_it_was_run": "as §1"}},
  "note": "pEC50: −log10 of the molar value.",
  "data": [
    {"smiles": "N#Cc1ccc(C2CCCc3cncn32)cc1", "note": "(stereo not drawn) [FAD286]", "values": [
      {"measurement": "plasma aldosterone", "setting": "[1]; 4 weeks of treatment", "value": "reduced"},
      {"measurement": "renal effects (albuminuria, azotemia, renovascular hypertrophy, glomerular injury, PAI-1 and osteopontin mRNA, tubulointerstitial fibrosis)", "setting": "[1]", "value": "prevented"},
      {"measurement": "angiotensin II and salt-stimulated PAI-1 mRNA expression in the aorta and the heart", "setting": "[1]", "value": "not"},
      {"measurement": "cardiac and aortic medial hypertrophy", "setting": "[1]", "value": "attenuated"},
      {"measurement": "blood pressure and cardiovascular function and structure", "setting": "[2]", "value": "improved"},
      {"measurement": "kidney function and morphology", "setting": "[2]", "value": "improve"}
    ]},
    {"smiles": "N#Cc1ccc([C@H]2CCc3cncn32)c(F)c1", "note": "[LCI699]", "values": [
      {"measurement": "blood pressure", "setting": "[3]", "value": "mildly decreased"},
      {"measurement": "circulating aldosterone levels", "setting": "[3]", "value": "significantly lower"},
      {"measurement": "hypokalemia", "setting": "[3]", "value": "corrected"}
    ]},
    {"smiles": "CC(=O)S[C@@H]1CC2=CC(=O)CC[C@]2(C)[C@H]2CC[C@@]3(C)[C@@H](CC[C@@]34CCC(=O)O4)[C@H]12", "note": "[spironolactone]", "values": [
      {"measurement": "renal effects (albuminuria, azotemia, renovascular hypertrophy, glomerular injury, PAI-1 and osteopontin mRNA, tubulointerstitial fibrosis)", "setting": "[1]", "value": "prevented"},
      {"measurement": "aldosterone", "setting": "[1]; at 4 and 8 weeks of treatment", "value": "increased"},
      {"measurement": "angiotensin II and salt-stimulated PAI-1 mRNA expression in the aorta and the heart", "setting": "[1]", "value": "enhanced"},
      {"measurement": "cardiac and aortic medial hypertrophy", "setting": "[1]", "value": "attenuated"}
    ]},
    {"smiles": "CC(C)n1cncc1C(=O)c1ccc(Cl)c(Cl)c1", "note": "[Example 14, (3,4-Dichloro-phenyl)-(3-isopropyl-3H-imidazol-4-yl)-methanone]", "values": [
      {"measurement": "pEC50", "setting": "[4]", "value": 9.30},
      {"measurement": "pEC50", "setting": "[5]", "value": 8.74}
    ]}
  ]
}
